The values below come from US20060173171A1, “Techniques and compositions for diagnosis and treatment of cancer (muci)” (priority 2003, published 2006).

The assay concerns ligands in breast tumor cell lysates. The assay can be described thus: Ligand fishing from cell lysates with PSMGFR peptide on NTA-Ni beads, silver-stained gel. The class given is binding, human. The protocol: In an effort to identify ligands to the MUC1 receptor, synthetic, His-var-PSMGFR peptides, […] (SEQ ID NO: 2), which is representative of the portion of the MUC1 receptor, that remains attached to the cell surface after cleavage of the interchain binding region, were loaded onto NTA-Ni beads (cat. #1000630; available from Qiagen GmbH, Germany) and incubated with cell lysates in the presence (FIG. 9) or absence (FIG. 10) of the protease inhibitor PMSF (phenyl methyl sulfonyl fluoride). Lysates from T47D cells were used because this breast tumor cell line is known to overexpress MUC1 and MUC1 ligand(s). T47D cells were cultured then sonicated for 1 minute to lyse the cells. Lysates were mixed with the PSMGFR peptide-presenting beads and incubated on ice with intermittent mixing for 1 hr. As a negative control, an irrelevant peptide, HHHHHHGEFTGTYITAVT (SEQ ID NO: 13), was attached to NTA-Ni beads and treated identically. Both sets of beads were washed 2× with phosphate buffer pH 7.4. Bound protein species were eluted by 3 additions of 100 uL of phosphate buffer that also contained 250 mM imidazole. For both the peptides, a portion of the first elution was removed and reserved to run as a separate sample, while the remainder was combined with the other 2 elutions and concentrated by TCA (tri-chloro acetic acid)-precipitation (Chen, L. et al., Anal. Biochem. Vol 269; pgs 179-188; 1999). […]

Regarding “GTINVHDVETQFNQYKTEAASPYNLTISDVSVSDVPFPFSAQSGAHHHHHH [PSMGFR peptide]”, the “protein species bound from T47D lysate” value is listed as “bound distinguishably to one peptide” (in the absence of PMSF, FIG. 10) and “bound distinguishably to three peptides” (in the presence of PMSF, FIG. 9).
